According to the supplement of paper PMC10307832:

What was measured:
Assay in all cases: relative viability (nuclei count vs DMSO), 5 days (fraction); higher = more cells survive
Ispinesib + Navitoclax = compound: Cc1ccc(C(=O)N(CCCN)[C@@H](c2nc3cc(Cl)ccc3c(=O)n2Cc2ccccc2)C(C)C)cc1 [Ispinesib] + CC1(C)CCC(c2ccc(Cl)cc2)=C(CN2CCN(c3ccc(C(=O)NS(=O)(=O)c4ccc(N[C@H](CCN5CCOCC5)CSc5ccccc5)c(S(=O)(=O)C(F)(F)F)c4)cc3)CC2)C1 [Navitoclax] (partner 0.5 µM)
Method in brief: (§1)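 Dosing by pin tool came one day after lung cancer cell lines were seeded in 1536-well plates, using either one drug or a fixed anchor-drug dose plus five library-drug doses (not always all listed) in √10 steps. After 5 days, nuclei were counted on 4× images. Relative viability is treated-well nuclei count divided by vehicle-well nuclei count, and values are medians of duplicate plates.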

Linsitinib + Pictilisib = compound: C[C@]1(O)C[C@@H](c2nc(-c3ccc4ccc(-c5ccccc5)nc4c3)c3c(N)nccn32)C1 [Linsitinib] + CS(=O)(=O)N1CCN(Cc2cc3nc(-c4cccc5[nH]ncc45)nc(N4CCOCC4)c3s2)CC1 [Pictilisib] (partner 1 µM)
Method in brief: as §1

Ispinesib + Pemetrexed = compound: Cc1ccc(C(=O)N(CCCN)[C@@H](c2nc3cc(Cl)ccc3c(=O)n2Cc2ccccc2)C(C)C)cc1 [Ispinesib] + Nc1nc2[nH]cc(CCc3ccc(C(=O)N[C@@H](CCC(=O)O)C(=O)O)cc3)c2c(=O)[nH]1 [Pemetrexed] (partner 0.2 µM)
Method in brief: as §1

Ispinesib + AZD7762 = compound: Cc1ccc(C(=O)N(CCCN)[C@@H](c2nc3cc(Cl)ccc3c(=O)n2Cc2ccccc2)C(C)C)cc1 [Ispinesib] + NC(=O)Nc1cc(-c2cccc(F)c2)sc1C(=O)N[C@H]1CCCNC1 [AZD7762] (partner 0.2 µM)
Method in brief: as §1

Row | Cell Line | relative viability (Ispinesib + Navitoclax; first compound 0.001 µM) | relative viability (Ispinesib + Navitoclax; first compound 0.003162 µM) | relative viability (Ispinesib + Navitoclax; first compound 0.01 µM) | relative viability (Ispinesib + Navitoclax; first compound 0.03162 µM) | relative viability (Ispinesib + Navitoclax; first compound 0.1 µM) | relative viability (Linsitinib + Pictilisib; first compound 0.01 µM) | relative viability (Linsitinib + Pictilisib; first compound 0.03162 µM) | relative viability (Linsitinib + Pictilisib; first compound 0.1 µM) | relative viability (Linsitinib + Pictilisib; first compound 0.3162 µM) | relative viability (Linsitinib + Pictilisib; first compound 1 µM) | relative viability (Ispinesib + Pemetrexed; first compound 0.001 µM) | relative viability (Ispinesib + Pemetrexed; first compound 0.003162 µM) | relative viability (Ispinesib + Pemetrexed; first compound 0.01 µM) | relative viability (Ispinesib + Pemetrexed; first compound 0.03162 µM) | relative viability (Ispinesib + Pemetrexed; first compound 0.1 µM) | relative viability (Ispinesib + AZD7762; first compound 0.001 µM) | relative viability (Ispinesib + AZD7762; first compound 0.003162 µM) | relative viability (Ispinesib + AZD7762; first compound 0.01 µM) | relative viability (Ispinesib + AZD7762; first compound 0.03162 µM) | relative viability (Ispinesib + AZD7762; first compound 0.1 µM)
1 | 201T | 1.23 | 1.17 | 1.19 | 1.17 | 1.08 | 0.706 | 0.703 | 0.688 | 0.616 | 0.534 | 0.308 | 0.334 | 0.328 | 0.32 | 0.264 | 0.662 | 0.521 | 0.643 | 0.65 | 0.309
2 | A549 | 1.34 | 1.16 | 1.18 | 0.0508 | 0.0539 | 0.514 | 0.442 | 0.344 | 0.242 | 0.273 | – | – | – | – | – | – | – | – | – | –
3 | A-427 | 0.938 | 0.995 | 1.06 | 0.827 | 0.903 | 0.53 | 0.594 | 0.719 | – | 0.688 | 1.04 | 1.13 | 1.1 | 0.48 | 0.243 | 0.853 | 0.817 | 0.976 | 0.462 | 0.32
4 | ABC-1 | – | – | – | – | – | 0.883 | 0.572 | 0.696 | 0.434 | 0.498 | – | – | – | – | – | 0.981 | 1.21 | 0.852 | 0.395 | 0.301
5 | BEN | 0.0635 | 0.0753 | 0.0591 | 0.0599 | 0.053 | 0.526 | 0.576 | 0.64 | 0.425 | 0.606 | 0.826 | 0.953 | 0.797 | 0.471 | 0.278 | 0.745 | 0.85 | 0.678 | 0.472 | 0.347
6 | CAL-12T | 1.28 | 1.4 | 1.47 | 0.537 | 0.177 | 0.44 | 0.368 | 0.585 | 0.379 | 0.336 | 1.31 | 1.24 | 1.41 | 1.12 | 0.235 | 0.707 | 0.74 | 0.594 | 0.52 | 0.212
7 | COR-L23 | 1.06 | 1.15 | 1.34 | 0.192 | 0.124 | 0.769 | 0.924 | 0.652 | 0.393 | 0.341 | 0.197 | 0.195 | 0.183 | 0.158 | 0.147 | – | – | – | – | –
8 | COR-L 105 | 0.722 | 0.824 | 0.676 | 0.464 | 0.345 | 0.454 | 0.434 | 0.387 | 0.301 | 0.25 | 1.09 | 1.11 | 1.24 | 0.794 | 0.5 | – | – | – | – | –
9 | Calu-6 | 0.764 | 0.344 | 0.173 | 0.0922 | 0.12 | 0.878 | 0.805 | 0.916 | 0.748 | 0.716 | – | – | – | – | – | – | – | – | – | –
10 | ChaGo-K-1 | 1.11 | 1.45 | 0.995 | 0.732 | 0.335 | 0.809 | 0.665 | 0.576 | 0.317 | 0.666 | 0.248 | 0.274 | 0.26 | 0.256 | 0.154 | 1.01 | 0.874 | 0.879 | 0.903 | 0.245
11 | EBC-1 | 0.349 | 0.43 | 0.246 | 0.189 | 0.223 | 0.499 | 0.347 | 0.381 | 0.299 | 0.246 | – | – | – | – | – | – | – | – | – | –
12 | EKVX | 1.07 | 0.964 | 1.06 | 0.75 | 0.22 | 0.464 | 0.39 | 0.43 | 0.502 | 0.375 | 0.41 | – | 0.416 | 0.337 | 0.325 | 0.777 | – | 0.767 | 0.464 | 0.303
13 | EMC-BAC-2 | 1.2 | 1.35 | 1.28 | 1.08 | 0.758 | 0.47 | 0.489 | 0.496 | 0.455 | 0.412 | 0.455 | 0.418 | 0.405 | 0.352 | 0.327 | 1.22 | 1.23 | 1.34 | 0.704 | 0.599
14 | EPLC-272H | 1.24 | 1.21 | 1.25 | 0.784 | 1.02 | 0.339 | 0.306 | 0.286 | – | 0.23 | 0.31 | 0.327 | 0.193 | 0.265 | 0.227 | 0.226 | 0.253 | 0.21 | 0.16 | 0.0883
15 | H3255 | 0.562 | 0.541 | 0.46 | 0.344 | 0.217 | 0.571 | 0.52 | 0.566 | 0.468 | 0.45 | 0.575 | 0.604 | 0.515 | 0.525 | 0.39 | 0.94 | 1.06 | 0.89 | 0.623 | 0.311
16 | HARA | 1.28 | 1.17 | 1.36 | 1.17 | 0.12 | 0.399 | 0.373 | 0.248 | 0.369 | 0.166 | 0.278 | 0.203 | 0.209 | 0.187 | 0.171 | 0.501 | 0.345 | 0.365 | 0.308 | 0.227
17 | HCC-15 | 0.792 | 0.82 | 0.848 | 0.665 | 0.401 | 0.743 | 0.703 | 0.824 | 0.234 | 0.583 | 0.241 | 0.258 | 0.23 | 0.221 | 0.144 | 1.26 | 1.33 | 1.34 | 0.902 | 0.154
18 | HCC-44 | 1.02 | 1 | 1.2 | 1.05 | 0.265 | 0.579 | 0.634 | 0.66 | 0.317 | 0.311 | 0.682 | 0.663 | 0.657 | 0.496 | 0.391 | 0.983 | 1.1 | 1.02 | 1.03 | 0.756
